{"source": "patent US6458840B2", "about": "“Use of valproic acid analog for the treatment and prevention of migraine and affective illness” (American Biogenetic Sciences, Inc., priority 1998, dated 2002)", "key": {"[1]": {"assay": "Rotarod test (neurological deficit) in kindled rats", "format": "in vivo, rat", "details": "100 mg/kg; 13′; all 8 animals +", "protocol": "(§1) Tests included open field observations, rotarod test and body temperature. Tests were always performed in the same manner in control and drug experiments at two different times, just before application of drug or vehicle and 13 minutes after application.\nThe rotarod test was carried out with a rod of 6 cm diameter and rotation speed of 8 r.p.m. Neurological deficit was indicated by inability of the animals to maintain their equilibrium for at least 1 min on the rotating rod. Rats had to be trained prior to drug experiments to maintain their balance on the rod. After drug or vehicle treatment, rats which were not able to maintain their equilibrium on the rod for 1 minute were put again on the rod twice."}, "[2]": {"assay": "Rectal body temperature", "format": "in vivo, rat", "details": "100 mg/kg; 13′ post appl.; mean of 8 rats; ante appl. 38.71", "protocol": "Female Wistar rats (Harlan-Winkelmann, Borchen, Germany) were obtained at an age of 11-12 weeks (body weight 180-200 g). Female rats were employed because they are known to eliminate drugs less rapidly than do males, which was thought to be an advantage for drug potency studies. Rats were kept separately in plastic cages at controlled temperature (23° C.) and humidity (about 50 %) with a 12-h light cycle beginning at 7 a.m. They received standard diet (Altromin; Lage, F.R.G.), tap water and libitum. All drug injections were done in the afternoon at an ambient temperature of 23-25° C. The regular protocol started by taking the rats out of their individual cage, weighing them and joining them together on a table with six open plastic cages for better behavioral observations. Therefore animals were able to move from one cage to another and either to have social contact or to avoid it. After a short adaptation time of approximately 15 minutes, rectal body temperatures were recorded followed by drug or vehicle application.\nas §1\nIn addition to these quantitative estimations of neurological deficit, behavioral alterations observed after administration of 2-propyl-4-hexynoic acid and valproate noted in the cage and by placing the animals in an open field of 90-100 cm diameter. Muscle tone was estimated by palpation of the abdomen. The extent of deficits in behavior after administration of the compounds was determined by a rating system (Loscher et al. 1987). In short, animals were taken out of the cage, placed in an open field, observed for about 1 minute and rated separately for ataxia, abducted hindlimbs, reduced righting, flat body posture, circling, Straub tail, piloerection, hypolocomotion and hyperlocomotion (abdominal muscle tone was evaluated by palpation at the end of the period of observation). All other parameters except ataxia were scored from 0 to 3: 0-absent; 1-equivocal; 2-present; 3- intense. For ataxia (06): 1 -slight ataxia in hind-legs (tottering of the hind quarters); 2-more pronounced ataxia with dragging of hind legs; 3-further increase of ataxia and more pronounced dragging of hind legs; 4-marked ataxia, animals lose balance during forward locomotion; 5- very marked ataxia with frequent loss of balance during forward locomotion; 6-permanent loss of righting reflexes, but animal still attempts to move forward. Rectal body temperature was measured by an electronic thermometer. Body weight of the animals was recorded once daily before drug injection. Significance of differences in behavior between pre-drug and post-drug data determined in the same group of animals was calculated by the Wilcoxon signed rank test for paired replicates and for body temperature by Student's paired t-test (SigmaStat for Windows, version 1.0). Differences in body temperature were always compared only within the experimental day with the pre-drug time as control to one post-drug time."}, "[3]": {"test_system": "amygdala-kindled seizures", "assay": "Amygdala-kindling in fully kindled rats (anti-seizure effects)", "format": "in vivo, rat", "details": "100 mg/kg", "protocol": "For implantation of stimulation and recording electrodes, rats were anesthetized with chloral hydrate (360 mg/kg i.p.) and received stereotaxic implantation (according to the surgery methods described in the atlas of Paxinos and Watson [1986]) of one bipolar electrode in the right basolateral amygdala. Coordinates for electrode implantation were AP-2.2 mm, L-4.8 mm, V-8.5 mm. All coordinates were measured from bregma. Skull screws served as the indifferent reference electrode. The electrode assembly was attached to the skull by dental acrylic cement. After a postoperative period of 2 weeks, constant current stimulations (500 μA, 1 ms, monophasic square-wave pulses, 50/s for 1 s) were delivered to the amygdala at intervals of 1/day until ten stage 5 seizures were elicited. The electrical susceptibility of the stimulated region (threshold for induction of afterdischarges) was recorded on the first day of the experiment (initial afterdischarge threshold) as well as after kindling acquisition (with an interval of at least 4 days after the tenth stage 5 seizure) using an ascending staircase procedure. The initial current intensity was 1 OμA, and the current intensity was increased in steps of about 20% of the previous current at intervals of 1 min until an afterdischarge of at least 3 s duration was elicited. […] In addition to afterdischarge threshold, the following parameters of kindled seizures were measured in fully-kindled rats after stimulation with the afterdischarge threshold current: seizure severity was classified according to Racine (1972): 1 -immobility, eye closure, twitching of vibrissae, sniffing, facial clonus; 2-head nodding associated with more severe facial clonus; 3-clonus of one forelimb; 4-rearing, often accompanied by bilateral forelimb clonus; 5-rearing with loss of balance and falling accompanied by generalized clonic seizures. Seizure duration 1 (SD 1) was the duration of limbic (stage 1-2) and/or motor seizures (stage 3-5). Seizure duration 2 (SD 2) included the time of limbic and/or motor seizures plus the adjacent time of immobility. Afterdischarge duration 1 (ADD 1) was the time of spikes in the EEG recorded from the site of stimulation with a frequency of at least 1 /s. Afterdischarge duration 2 (ADD 2) was the total time of spikes occurring in the EEG including those, which followed the ADD 1 with lower frequency and amplitude.\nThe anti-seizure effects of 2-propyl-4-hexynoic acid and valproate in fully kindled rats were determined in a group of 8-9 rats (no. 784, 785, 787, 788, 789, 790 [had to be taken out of the trial, because of loss of electrodes], 791, 792, 793) with reproducible stage 5 seizures.\nDrugs were injected 15 min prior to stimulation intraperitoneally. Control experiments were always performed 2-3 days before each drug experiment. For control determinations, rats received i.p. injections of vehicle (saline) with the pretreatment time of the respective drug experiment. For all drug experiments, at least 4 days were interposed between 2 drug injections in order to avoid alterations in drug potency due to cumulation or tolerance.\nThe significance of differences between pre-drug control recordings and recordings after drug injection was calculated by the Wilcoxon signed rank test for paired replicates (SigmaStat for Windows, version 1.0)."}, "[4]": {"test_system": "amygdala-kindled seizures", "details": "rats; cited from earlier work"}, "[5]": {"test_system": "PTZ induced seizures", "details": "literature / earlier application; cited from earlier work"}}}
{"smiles": "CC#CCC(CCC)C(=O)O", "note": "(stereo not drawn) [2-propyl-4-liexynoic acid]", "values": [{"measurement": "rotarod-test, day of exper.", "setting": "[1]", "result": 0, "unit": "%"}, {"measurement": "BODY TEMP. (° C.) day of exper. 13′ post appl.", "setting": "[2]", "result": 38.31, "unit": "°C"}, {"measurement": "afterdisch.thresh. (ADT; μA)", "setting": "[3]; mean (X) of 8 kindled rats, control mean 48.50", "result": 126.25, "unit": "μA"}, {"measurement": "seizure severity (SS; score)", "setting": "[3]; mean of 8 rats, control mean 5.00", "result": 3.63, "unit": "score"}, {"measurement": "seizure duration1 (SD1; sec)", "setting": "[3]; mean of 8 rats, control mean 83.00", "result": 46.50, "unit": "s"}, {"measurement": "afterdisch.dur.1 (ADD1;sec)", "setting": "[3]; mean of 8 rats, control mean 86.00", "result": 62.75, "unit": "s"}, {"measurement": "afterdisch.dur.2 (ADD2; sec)", "setting": "[3]; mean of 8 rats, control mean 86.88", "result": 62.75, "unit": "s"}, {"measurement": "seizure duration2 (SD2; sec)", "setting": "[3]; mean of 8 rats, control mean 258.75", "result": 105.63, "unit": "s"}]}
{"smiles": "CN1C(=O)CN=C(c2ccccc2)c2cc(Cl)ccc21", "note": "[Diazepam]", "values": [{"measurement": "effect on complete, late-stage or spontaneous kindled seizures, in words", "setting": "[4]", "result": "not effective during the late stages"}, {"measurement": "effect on development / early stages of kindled seizures, in words", "setting": "[4]", "result": "effective in inhibiting the earlier stages of seizure development"}]}
{"smiles": "O=C1NC(=O)C(c2ccccc2)(c2ccccc2)N1", "note": "[Phenytoin]", "values": [{"measurement": "effect on complete, late-stage or spontaneous kindled seizures, in words", "setting": "[4]", "result": "effective block of spontaneous seizures"}, {"measurement": "effect on development / early stages of kindled seizures, in words", "setting": "[4]", "result": "not seizures elicited during the early stages of kindling"}]}
{"smiles": "NC(=O)N1c2ccccc2C=Cc2ccccc21", "note": "[carbamazepine]", "values": [{"measurement": "effect on complete, late-stage or spontaneous kindled seizures, in words", "setting": "[4]", "result": "suppresses complete amygdala-kindled seizures"}, {"measurement": "effect on development / early stages of kindled seizures, in words", "setting": "[4]", "result": "ineffective in preventing their development"}, {"measurement": "antiepileptic effect in PTZ test, in words", "setting": "[5]", "result": "less effective"}]}
